Patent US20170158636A1, “FUNCTIONALISED AND SUBSTITUTED CARBAZOLES AS ANTI-CANCER AGENTS” (Novogen Ltd., priority 2014, published 2017)

What was measured:
Assay type in all cases: cell-based
[1] = test system: IL-17A; experiment: Cytokine release from PMA/ionomycin-stimulated PBMCs (HTRF); conditions: PBMC, human PBMCs, PMA and ionomycin
Method: (§1) The ability of compounds 1004, 1007 and 1018 to inhibit the release of cytokines TNF-α, IFN-γ, IL-6, IL-21, IL-17A and IL-23 was evaluated in vitro (Tables 2 and 3). Briefly, human peripheral blood mononuclear cells (PBMCs) were isolated from human peripheral blood by Histopaque density gradient centrifugation. The freshly isolated PBMCs were seeded at 50,000 cells/well in a 96-well half area plate. PBMCs were dosed with the test compounds (at 10 μM, 1 μM and 0.1 μM) and then incubated at 37° C. and 5% CO2 for 2 hours. To stimulate release of the cytokines IFN-γ, IL-21, IL-17A and IL-23, the PBMCs were treated with 50 ng/mL of phorbol 12-myristate 13-acetate (PMA) and 1 μg/mL of ionomycin and to stimulate the release of TNF-α and IL-6, PBMCs were treated with 100 ng/mL of lipopolysaccharide (LPS) from gram-negative bacteria. The PBMCs were then incubated at 37° C. and 5% CO2 for a further 6 hours and the cell supernatant was collected and a Homogenous Time Resolved Fluorescence (HTRF) assay was carried out following the manufacturer's instructions. Cytokine release from the PBMCs was captured using a Perkin Elmer ENVISION 2104 microplate reader set at 615 nm and 665 nm respectively.

[2] = test system: IL-23; experiment: as above; conditions: PBMC, human PBMCs, PMA and ionomycin
Method: as §1

[3] = test system: IL-21; experiment: as above; conditions: PBMC, human PBMCs, PMA and ionomycin
Method: as §1

[4] = test system: IFN-γ; experiment: as above; conditions: PBMC, human PBMCs, PMA and ionomycin
Method: as §1

[5] = test system: IL-6; experiment: Cytokine release from LPS-stimulated PBMCs (HTRF); conditions: PBMC, human PBMCs
Method: as §1

[6] = test system: TNF-α; experiment: Cytokine release from LPS-stimulated PBMCs (HTRF); conditions: PBMC, human PBMCs
Method: as §1

[7] = test system: actin cytoskeleton in SK-N-SH neuroblastoma cells; experiment: Microfilament disruption assay (phalloidin staining, linear feature quantitation); conditions: 0-40 μM, 24 hours post treatment
Method: FIG. 1: Imaging and quantitation of actin filaments in SK-N-SH neuroblastoma cells treated with compound (A) 1007, (B) 1013 and (C) 1016. Cells were stained with 488-Atto-Phallodin and DAPI to visualize the actin filament bundles and the nucleus, respectively. Shown in the top panel is a representative gray scale immunofluorescent image from control (vehicle alone), 5 μM and 10 μM treated cells. […] The coloured lines indicate the detected actin filaments. Also shown is the quantitation of cell number, filament number/cell and filament number/cell area (μM^2). Statistical analysis was performed using a one way ANNOVA-multiple comparison where each drug treated group was compared to the control. ****p<0.0001, […].
The ability of compounds 1007, 1013 and 1016 to disrupt the actin cytoskeleton was assessed in vitro using the microfilament disruption assay (FIG. 1).
Briefly, SK-N-SH neuroblastoma cells were seeded at 1800 cells/well in a 384 Perkin Elmer High Content Imaging “Cell Carrier” plate and left to plate down 24 hours prior to treatment. Cells were then treated with 0-40 μM of the test compounds (1:2 serial dilution in a 10 point dose response). 24 hours post treatment, cells were fixed with 4% w/v paraformaldehyde (PBS), permeabilized with Triton-X-100 and stained with 488-Atto-Phallodin and DAPI to visualize the actin filament bundles and the nucleus respectively. Single plane images were obtained on the Perkin Elmer Opera confocal microscope using a 20× objective. Twelve fields of view per condition (representing approximately 300-800 cells) were imaged. Images were then exported and changes in the organization and numbers of actin filaments within the cell were quantitated using a linear feature detection algorithm developed by CSIRO (Vindin et al. 2014). This algorithm detects the “ridge lines” or “peaks” in local pixel intensity in the cell image. It is these “ridge lines” that correspond to actin filament bundles and allow us to quantitate the number of filaments per cell.

[8] = test system: Tpm3.1-containing actin filaments in SK-N-SH neuroblastoma cells; experiment: Disruption of Tpm3.1-containing actin filaments (γ9d staining); conditions: SK-N-SH cells, 0, 5 and 7.5 μM, 48 hours post treatment
Method: FIG. 2: Imaging and quantitation of Tpm3.1-containing actin filaments in SK-N-SH neuroblastoma cells treated with compound (A) 1007, (B) 1013 and (C) 1016. Cells were stained with γ9d (sheep polycolonal, 1:100) followed by 488-conjugated secondary (1:1000) and DAPI to visualize the Tpm3.1 containing filament bundles and the nucleus, respectively. Shown in the top panel is a representative gray scale immunofluorescent image from control (vehicle alone), 5 μM and 7.5 μM treated cells. […] The coloured lines indicate the detected Tpm3.1 containing actin filaments. Also shown is the quantitation of cell number, Tpm3.1 filament number/cell and Tpm3.1 filament number/cell area (μM^2). Statistical analysis was performed using a one way ANNOVA-multiple comparison where each drug treated group was compared to the control. ****p<0.0001.
Another assay was conducted to assess the ability of compounds 1007, 1013 and 1016 to specifically disrupt actin filaments containing Tpm3.1 (FIG. 2). Briefly, SK-N-SH neuroblastoma cells were seeded at 2×10^4 cells/mL in a 10 cm tissue culture plate and left to plate down 24 hours prior to treatment. Cells were then treated with 0, 5 and 7.5 μM of the test compounds. 48 hours post treatment, cells were fixed with 4% w/v paraformaldehyde (PBS), permeabilized with Triton-X-100 and stained with γ9d (sheep polycolonal, 1:100) followed by 488-conjugated secondary (1:1000) and DAPI to visualize the Tpm3.1 containing filament bundles and the nucleus, respectively. Single plane images were obtained on the Zeiss epifluorescent Axioscope microscope using a 20× objective. Six fields of view per condition were imaged. Images were then exported and the linear features (actin filaments containing Tpm3.1) were then quantitated using the linear feature detection algorithm described above.

Q: What does the source list for `CCN(CC)CCCn1c2ccccc2c2cc(C(=O)N3CCN(CCc4ccc(F)cc4)CC3)ccc21` [Compound 1007, (9-(3-(diethylamino)propyl)-9H-carbazol-3-yl)(4-(4-fluorophenethyl)piperazin-1-yl)methanone]?
A: inhibition at 0.1 µM ([1]; 0.1 μM): -4%; inhibition at 1 µM ([1]; 1 μM): 22%; inhibition at 10 µM ([1]; 10 μM): 59%; inhibition at 0.1 µM ([2]; 0.1 μM): -15%; inhibition at 1 µM ([2]; 1 μM): -11%; inhibition at 10 µM ([2]; 10 μM): -3%; inhibition at 0.1 µM ([3]; 0.1 μM): -7%; inhibition at 1 µM ([3]; 1 μM): -9%; inhibition at 10 µM ([3]; 10 μM): -4%; inhibition at 0.1 µM ([4]; 0.1 μM): 8%; inhibition at 1 µM ([4]; 1 μM): 53%; inhibition at 10 µM ([4]; 10 μM): 90%; inhibition at 0.1 µM ([5]; 0.1 μM): 38%; inhibition at 1 µM ([5]; 1 μM): 59%; inhibition at 10 µM ([5]; 10 μM): 89%; inhibition at 0.1 µM ([6]; 0.1 μM): 43%; inhibition at 1 µM ([6]; 1 μM): 60%; inhibition at 10 µM ([6]; 10 μM): 82%; disruption of the actin cytoskeleton [7]: disrupt the actin cytoskeleton in a dose-dependent manner; disruption of Tpm3.1-containing actin filaments [8]: disrupt Tpm3.1-containing actin filaments in a dose-dependent manner
